Assay results published in patent publication US10829778B2, “Plants having increased tolerance to herbicides” (BASF SE, priority 2013, dated 2020).

How the values were obtained:
Picrophilus HPPD = assay: HPPD activity assay, wildtype enzyme; format: biochemical, Picrophilus torridus; conditions: Table 12, normalized to Arabidopsis HPPD
Description: HPPD produces homogentisic acid and CO2 from 4-hydroxyphenylpyruvate (4-HPP) and O2. The activity assay for HPPD is based on the analysis of homogentisic acid by reversed phase HPLC.
The assay mixture can contain 150 mM potassium phosphate buffer pH 7.0, 50 mM L-ascorbic acid, 100 μM Catalase (Sigma-Aldrich), 1 μM FeSO4 and 0.2 units of purified HPPD enzyme in a total volume of 505 μl. 1 unit is defined as the amount of enzyme that is required to produce 1 nmol of HGA per minute at 20° C.
After a preincubation of 30 min the reaction is started by adding 4-HPP to a final concentration of 0.05 mM. The reaction is allowed to proceed for 45 min at room temperature. The reaction is stopped by the addition of 50 μl of 4.5 M phosphoric acid. The sample is filtered using a […] pore size PVDF filtration device.
5 μl of the cleared sample is analyzed on an UPLC HSS T3 column (particle size 1.8 μm, dimensions 2.1×50 mm; Waters) by isocratic elution using 90% 20 mM NaH2PO4 pH 2.2, 10% methanol (v/v).
HGA is detected electrochemically at 750 mV (mode: DC; polarity: positive) and quantified by integrating peak areas (Empower software; Waters).
Inhibitors are dissolved in DMSO (dimethylsulfoxide) to a concentration of 0.5 mM. From this stock solution serial five-fold dilutions are prepared in DMSO, which are used in the assay. […] IC50 values are calculated using non-linear regression. […]

[1] = system: non-transgenic Arabidopsis plants (WT); assay: Greenhouse herbicide spray test, Arabidopsis plants (T2); format: in vivo, Arabidopsis thaliana; conditions: two weeks after treatment
Source text: (§1) For post emergence treatment, the test plants are first grown to a height of 3 to 15 cm, depending on the plant habit, and only then treated with the herbicides. For this purpose, the test plants are either sown directly and grown in the same containers, or they are first grown separately and transplanted into the test containers a few days prior to treatment.
(§2) Additionally, T1 and T2 transgenic Arabidopsis plants can be tested for improved tolerance to N-heterocyclyl-arylcarboxamides in a greenhouse studies. Herbicide injury scoring is done 2-3 weeks after treatment and is rated on a scale of 0 to 100%, 0% being no injury and 100% being complete death.

[2] = system: transgenic Arabidopsis plants expressing AtHPPD M335H, P336A, E363Q; assay: Greenhouse herbicide spray test, transgenic Arabidopsis plants (T2); format: in vivo, Arabidopsis thaliana; conditions: two weeks after treatment
Source text: as §1, §2

[3] = system: transgenic Arabidopsis plants expressing AtHPPD M335Y, P336A, E363Q; assay: as above; format: in vivo, Arabidopsis thaliana; conditions: two weeks after treatment
Source text: as §1, §2

[4] = system: transgenic Arabidopsis plants expressing HvHPPD L320H, P321A; assay: as above; format: in vivo, Arabidopsis thaliana; conditions: for Injury evaluation: P321A, two weeks after treatment
Source text: as §1, §2

[5] = system: transgenic Arabidopsis plants expressing HvHPPD L320H; assay: as above; format: in vivo, Arabidopsis thaliana; conditions: for Injury evaluation: HvHPPD L320H, two weeks after treatment
Source text: as §1, §2

With `Cc1nonc1NC(=O)c1ccc(S(C)(=O)=O)c(S(C)(=O)=O)c1C` [Inhibitor 1, 2-methyl-N-(4-methyl-1,2,5-oxadiazol-3-yl)-3,4-bis(methylsulfonyl)benzamide] the “Normalized tolerance index TI Inhibitor 1” value (Picrophilus HPPD) was 5.4, the Injury evaluation ([1]; WT (control of AtHPPD events), 1.56 g/ha) was 92% and the Injury evaluation ([1]; WT (control of AtHPPD events), 3.125 g/ha) was 91%. It also gave an Injury evaluation ([1]; WT (control of AtHPPD events), 6.25 g/ha) of 97%, an Injury evaluation ([1]; WT (control of AtHPPD events), 12.5 g/ha) of 97% and an Injury evaluation ([1]; WT (control of HvHPPD events), 1.56 g/ha) of 98%. The Injury evaluation ([1]; WT (control of HvHPPD events), 3.125 g/ha) was 98%, the Injury evaluation ([1]; WT (control of HvHPPD events), 6.25 g/ha) was 100% and the Injury evaluation ([1]; WT (control of HvHPPD events), 12.5 g/ha) was 100%. The Injury evaluation ([2]; 1.56 g/ha) was 3%, the Injury evaluation ([2]; 3.125 g/ha) was 13% and the Injury evaluation ([2]; 6.25 g/ha) was 42%. It also gave an Injury evaluation ([2]; 12.5 g/ha) of 42%, an Injury evaluation ([3]; 1.56 g/ha) of 12% and an Injury evaluation ([3]; 3.125 g/ha) of 23%. For the same molecule, the Injury evaluation ([3]; 6.25 g/ha) was 58%, the Injury evaluation ([3]; 12.5 g/ha) was 52% and the “increased tolerance versus wild-type plants” value ([4]; P321A plants, highest dose applied) was 40 fold. The Injury evaluation ([4]; 1.56 g/ha) was 0%, the Injury evaluation ([4]; 3.125 g/ha) was 0% and the Injury evaluation ([4]; 6.25 g/ha) was 2%. The Injury evaluation ([4]; 12.5 g/ha) was 2.5%, the “increased tolerance versus wild-type plants” value ([5]; HvHPPD L320H plants, dose of 3.125 g/ha) was roughly 20 fold and the Injury evaluation ([5]; 1.56 g/ha) was 0%. It also gave an Injury evaluation ([5]; 3.125 g/ha) of 5%, an Injury evaluation ([5]; 6.25 g/ha) of 20% and an Injury evaluation ([5]; 12.5 g/ha) of 27%.
